Results: patent EP0774258A1, “Composition containing 5-fluorouracil and d4T for use in the treatment of retroviral infection” (priority 1995, dated 1997)

What was measured:
[1] = system: clinical HIV-1 isolate, JEW; assay: Anti-HIV activity (p24 ELISA) in acutely infected PHA-stimulated PBMC, clinical isolate JEW; assay type: cell-based
From the text: The materials and experimental procedure used to obtain the results reported in Tables 1 and 2 are described below.
Virus - A clinical HIV-1 isolate, JEW, was titrated with a infectivity assay [Johnson, V. A. and R. E. Byington. 1990. Infectivity assay, p. 71-76. in A. Aldovini and B. D. Walker (ed.), Techniques in HIV Research. Stockton Press, New York], and used in our experiments.
Chemicals - d4T was supplied by Bristol-Myers Squibb Company. 5-Fluorouracil (5-FU) was purchased from Sigma.
• 1. […] 50 µl of 4 X 10^6/ml infected PBMC were added to each well in these plates to get a final 1 X 10^6 cells/ml, and incubated at 37°C. • 4. […] This was repeated with d4T using 5-FU concentrations of 0.1 µM and 0.5 µM, respectively.

PBMC = details: human

`OC[C@@H]1CC[C@H](n2cnc3c(O)ncnc32)O1` [ddI, 2',3'-dideoxyinosine] was tested, and the EC50 ([1]; Human immunodeficiency virus 1, PBMC, 168 h, 5-FU concentration 0.5 µM, PHA-stimulated PBMC, isolate JEW, p24 at day 7, mean of three experiments, read-out: EC50 (nM) of ddI) was 138 ± 26 nM, the “Fold Enhancement” value ([1]; effect of 0.2 µM 5-FU on ddI anti-HIV activity, isolate JEW) was 0.6 X and the “Fold Enhancement” value ([1]; effect of 0.5 µM 5-FU on ddI anti-HIV activity, isolate JEW) was 0.7 X.

For `Cc1cn([C@H]2C=C[C@@H](CO)O2)c(=O)[nH]c1=O` [d4T, 2',3'-didehydro-3'-deoxythymidine], the “Fold Enhancement” value ([1]; enhancement of d4T anti-HIV activity by 0.2 µM 5-FU, isolate JEW) was 1 X.

For `O=c1[nH]cc(F)c(=O)[nH]1` [5-FU, 5-fluorouracil], the antiviral activity ([1]; Fluorouracil alone, up to 0.5 µM, PHA-PBMC acutely infected by isolate JEW) was “no antiviral activity” and the 50% cytotoxicity concentration (PBMC) was “approximately 9 µM”.
